Experimental findings from patent US6436913B1, “Use of estramustine phosphate in the treatment of bone metastasis” (Pharmacia & Upjohn Company, priority 2000, dated 2002) are described below.

Structures are written as SMILES.

Data set [1] relates to mouse calvaria. In words: Bone resorption assay, organ culture with 45Ca-prelabeled mouse calvaria (PTH-stimulated 45Ca release). The class given is cell-based. As to conditions: for Bone resorption (45Ca release), result in words: in vitro mouse calvaria, compound present during culture; for Resorption / PTH-stimulated 45Ca release, result in words / Resorption, result in words: present only during preincubation; for Resorption / PTH-stimulated 45Ca release, result in words: then washed away. The protocol: This example used the organ culture technique with mouse calvaria.
The organ culture technique was used with ^45Ca-prelabeled mouse calvaria. The method has been described by Lerner (1987) and Ljunggren et al. (1991). Newborn mice were injected subcutaneously with ^45CaCl (1.5 μCi/animal). After four days their calvaria were dissected, split into quarters and preincubated in phenol red free CMRL 1066 medium supplemented with 0.1% bovine serum albumin and 50 μg/ml gentamicin for 24 hours at 37° C. in a humidified atmosphere of 5% CO2 in air in the presence of indomethacin (1 μmol/l) and 10 nmol/l bovine parathyroid hormone (PTH). After washing the bone pieces, the medium was changed and cultures incubated for three more days in the same medium but without indomethacin in the presence or absence of estramustine phosphate or clodronate. Resorption was measured by assaying the ^45Ca liberated into the medium using a standard technique for liquid scintillation counting. Total ^45Ca was determined after hydrolysing the calvaria in 6 mol/l HCI overnight. Bone resorption was studied in various concentrations of estramustine phosphate and the effect of estramusine phosphate present only during the preincubation stage was checked in order to study its cytotoxcity.
Results are expressed as mean±SEM, n=5 or 10. Inhibition percentage was calculated as follows
Inhibition %=^45Ca released control bones (%)−^45Ca released from sample bones (%) ^45Ca released control bones*100

A short description of data set [2]: Mutual bioavailability of estramustine phosphate and clodronate: serum AUC0-24h and Cmax in patients. The settings on record: for AUC0-24h Estracyt: serum, mean; for AUC0-24h and Cmax, drug alone versus concomitantly with the other drug / Bioavailability, effect of adding the other drug: patients, clodronate 3200 mg and estramustine phosphate 560 mg daily.
Protocol: (§1) The first group of six patients were given 3200 mg daily of clodronate only for four days. On the fifth day the AUC0-24h for the drug was calculated from serum concentrations of repeated blood samples. On the sixth day, 560 mg estramustine phosphate was add per oral to the clodronate treatment for the following four days. On day ten, the AUC0-24h for both drugs was calculated.
(§2) The second group of six patients were give orally 560 mg daily of estramustine phosphate only for four days. On the fifth day the AUC0-24h for the drug was calculated from serum concentrations of repeated blood samples. On the sixth day, 3200 mg clodronate was added to the estramustine phosphate treatment for the following four days. On day ten, the AUC0-24h for both drugs was calculated. The clodronate was provided as 400 mg capsules, and the estramustine phosphate used was estracyt in 140 mg capsules.
(§3) The method used in the analysis of the serum estramustine phosphate concentrations measures estrone and is insensitive to any metabolites. The estradiol-related metabolites (estramustine and estradiol) were not analyized in connection with the bioanalysis.
A short description of data set [3]: clinical. The settings on record: male, human, serum, oral, 3200 mg.
Protocol: as §1, §2, §3
[4] abbreviates: Experiment 2 (compound present only during preincubation), 100 μmol/l, mean±SEM.

As for `C[C@]12CC[C@@H]3c4ccc(OC(=O)N(CCCl)CCCl)cc4CC[C@H]3[C@@H]1CC[C@@H]2OP(=O)([O-])[O-].[Na+].[Na+]` [Estramustine phosphate, Estramustine phosphate sodium], the “45Ca-release (%)” value in data set [1] (Experiment 1, 0.01 μmol/l, mean±SEM) is 51.5 ± 3.0%; in data set [1] (Experiment 1, 0.1 μmol/l, mean±SEM), 50.6 ± 1.6%; in data set [1] (Experiment 1, 1 μmol/l, mean±SEM), 55.4 ± 2.9%; in data set [1] (Experiment 1, 10 μmol/l, mean±SEM) it was 34.7 ± 3.1%; in data set [1] (Experiment 1, 100 μmol/l, mean±SEM), 16.7 ± 0.2%; in data set [1] (Experiment 1, 1000 μmol/l (precipitate), mean±SEM), 24.0 ± 2.2%. In data set [1] (setting [4]), the “45Ca-release (%)” value was determined as 11.9 ± 0.6%. Also, the Inhibition % in data set [1] (Experiment 1, 0.01 μmol/l, mean±SEM, n=5 or 10) is reported as 5.5 ± 5.5%; in data set [1] (Experiment 1, 0.1 μmol/l, mean±SEM, n=5 or 10), 7.2 ± 2.9%; in data set [1] (Experiment 1, 1 μmol/l, mean±SEM, n=5 or 10), 2.0 ± 5.4%; in data set [1] (Experiment 1, 10 μmol/l, mean±SEM, n=5 or 10), 34.7 ± 3.1%; in data set [1] (Experiment 1, 100 μmol/l, mean±SEM, n=5 or 10), 65.3 ± 2.3%; in data set [1] (Experiment 1, 1000 μmol/l (precipitate noted for estramustine phosphate), mean±SEM), 55.9 ± 0.6%. Moreover, the Inhibition % is on record as −17.9 ± 8.7% in data set [1] (Experiment 2 (compound present only during preincubation), 10 μmol/l, mean±SEM) and 70.4 ± 1.4% in data set [1] (setting [4]). For the same compound, the “Bone resorption (45Ca release), result in words” value in data set [1] was “inhibited bone resorption in this in vitro model concentration-dependently and about as effectively as clodronate”; in data set [1] (listed as estramustine phosphate sodium) it was “dose-dependently inhibited”. For the same compound, in data set [1], the “Resorption / PTH-stimulated 45Ca release, result in words” value is “PTH could not stimulate ^45Ca release from bones”. For the same compound, the “Resorption, result in words” value in data set [1] (10 μmol/l) is “slightly increased”; in data set [1] (100 μmol/l), “strongly inhibited”. Moreover, the “AUC0-24h Estracyt” value in data set [2] (Estracyt 560 mg daily concomitantly with Clodronate 3200 mg) was determined as 84.74 µM·h; in data set [2] (Estracyt only, 560 mg daily orally) it was 47.38 µM·h. Further, the “AUC0-24h and Cmax, drug alone versus concomitantly with the other drug” value in data set [2] is listed as “differed statistically”. Moreover, the “Bioavailability, effect of adding the other drug” value in data set [2] is given as “almost doubled”.
On to `O=P(O)(O)C(Cl)(Cl)P(=O)(O)O` [Clodronate, Disodium clodronate], for which the inhibition (in general, the share of the control response that was lost under treatment) at 0.1 µM in data set [1] (Mus musculus, Experiment 1, 0.1 μmol/l, mean±SEM, n=5 or 10) worked out at 0.9 ± 1.2%. The compound also had an inhibition at 1 µM in data set [1] (Mus musculus, Experiment 1, 1 μmol/l, mean±SEM, n=5 or 10) of 3.5 ± 4.2%. Also, in data set [1] (Mus musculus, Experiment 1, 10 μmol/l, mean±SEM, n=5 or 10), the inhibition at 10 µM was 28.3 ± 3.8%. In data set [1] (Mus musculus, Experiment 1, 100 μmol/l, mean±SEM, n=5 or 10), this compound came in with an inhibition at 100 µM of 51.4 ± 1.9%. The same compound registered an inhibition at 1000 µM in data set [1] (Mus musculus, Experiment 1, 1000 μmol/l (precipitate noted for estramustine phosphate), mean±SEM) of 25.7 ± 6.6%. Moreover, the inhibition at 100 µM in data set [1] (Mus musculus, Experiment 2 (compound present only during preincubation), 100 μmol/l, mean±SEM) is 55.9 ± 0.5%. In data set [1], the “Resorption / PTH-stimulated 45Ca release, result in words” value was “also inhibits resorption”. In data set [2], the “AUC0-24h and Cmax, drug alone versus concomitantly with the other drug” value was “did not differ significantly”; the “Bioavailability, effect of adding the other drug” value is recorded as “no effect”. In addition, in data set [3], the AUC(0-t) – broadly, the area under the concentration-time curve up to a stated or last time point – was 19300 ng·h/mL and the concentration peaked (Cmax) at 1580 ng/mL.
